Several values for one entry are separate records, joined by “and”; a condition that tells them apart may be missing. Identical values can stand only once.
How the values were obtained:
Format in all cases: functional
Mus musculus [1] = experiment: Parenteral antimalarial activity against Plasmodium vinckei in mice (Mus musculus) measured as increase in mean survival time at 10 mg/kg dose
Mus musculus [2] = experiment: Parenteral antimalarial activity against Plasmodium vinckei vinckei in mice (Mus musculus) measured as increase in mean survival time at 25 mg/kg dose
Mus musculus [3] = experiment: Parenteral antimalarial activity against Plasmodium vinckei in mice (Mus musculus) measured as % cured and increase in MST (days) at 30 mg/kg dose
Mus musculus [4] = experiment: Oral antimalarial activity against Plasmodium vinckei in mice (Mus musculus) measured as increase in mean survival time at 25 mg/kg dose
Mus musculus [5] = experiment: Oral antimalarial activity against Plasmodium vinckei vinckei in mice (Mus musculus) measured as % cured and increase in MST (days) at 100 mg/kg dose
Mus musculus [6] = experiment: Oral antimalarial activity against Plasmodium vinckei vinckei in mice (Mus musculus) measured as % cured and increase in MST (days) at 150 mg/kg dose
Mus musculus [7] = experiment: Oral antimalarial activity against Plasmodium vinckei vinckei in mice (Mus musculus) measured as % cured and increase in MST (days) at 50 mg/kg dose
Mus musculus [8] = experiment: Parenteral antimalarial activity against Plasmodium vinckei in mice (Mus musculus) measured as increase in mean survival time at 30 mg/kg dose
Mus musculus [9] = experiment: Oral antimalarial activity against Plasmodium vinckei in mice (Mus musculus) measured as % cured and increase in MST (days) at 75 mg/kg dose
Mus musculus [10] = experiment: Parenteral antimalarial activity against Plasmodium vinckei vinckei in mice (Mus musculus) measured as % cured and increase in MST (days) at 15 mg/kg dose
Mus musculus [11] = experiment: Parenteral antimalarial activity against Plasmodium vinckei in mice (Mus musculus) measured as % cured and increase in MST (days) at 20 mg/kg dose
Mus musculus [12] = experiment: Parenteral antimalarial activity against Plasmodium vinckei in mice (Mus musculus) measured as % cured and increase in MST (days) at 25 mg/kg dose
Mus musculus [13] = experiment: Oral antimalarial activity against Plasmodium vinckei in mice (Mus musculus) measured as % cured and increase in MST (days) at 25 mg/kg dose
Mus musculus [14] = experiment: Parenteral antimalarial activity against Plasmodium vinckei in mice (Mus musculus) measured as % cured and increase in MST (days) at 10 mg/kg dose
Mus musculus [15] = experiment: Oral antimalarial activity against Plasmodium vinckei vinckei in mice (Mus musculus) measured as increase in mean survival time at 50 mg/kg dose
Mus musculus [16] = experiment: Oral antimalarial activity against Plasmodium vinckei vinckei in mice (Mus musculus) measured as increase in mean survival time at 75 mg/kg dose
Mus musculus [17] = experiment: Oral antimalarial activity against Plasmodium vinckei in mice (Mus musculus) measured as increase in mean survival time at 150 mg/kg dose
Mus musculus [18] = experiment: Parenteral antimalarial activity against Plasmodium vinckei in mice (Mus musculus) measured as increase in mean survival time at 15 mg/kg dose
Mus musculus [19] = experiment: Oral antimalarial activity against Plasmodium vinckei in mice (Mus musculus) measured as increase in mean survival time at 100 mg/kg dose
Mus musculus [20] = experiment: Parenteral antimalarial activity against Plasmodium vinckei in mice (Mus musculus) measured as increase in mean survival time at 20 mg/kg dose
Mus musculus [21] = experiment: Oral antimalarial activity against Plasmodium vinckei in mice (Mus musculus) measured as % cured and increase in MST (days) at 75 mg/kg dose.
Mus musculus [22] = experiment: Parenteral antimalarial activity against Plasmodium vinckei in mice (Mus musculus) measured as increase in mean survival time at 15 mg/kg dose.
Mus musculus [23] = experiment: Oral antimalarial activity against Plasmodium vinckei vinckei in mice (Mus musculus) measured as % cured and increase in MST (days) at 100 mg/kg dose.
Mus musculus [24] = experiment: Parenteral antimalarial activity against Plasmodium vinckei in mice (Mus musculus) measured as % cured and increase in MST (days) at 15 mg/kg dose.
Mus musculus [25] = experiment: Parenteral antimalarial activity against Plasmodium vinckei vinckei in mice (Mus musculus) measured as % cured and increase in MST (days) at 25 mg/kg dose.
Mus musculus [26] = experiment: Oral antimalarial activity against Plasmodium vinckei in mice (Mus musculus) measured as % cured and increase in MST (days) at 50 mg/kg dose.
Mus musculus [27] = experiment: Oral antimalarial activity against Plasmodium vinckei in mice (Mus musculus) measured as increase in mean survival time at 25 mg/kg dose.
Mus musculus [28] = experiment: Oral antimalarial activity against Plasmodium vinckei in mice (Mus musculus) measured as % cured and increase in MST (days) at 25 mg/kg dose.
Mus musculus [29] = experiment: Parenteral antimalarial activity against Plasmodium vinckei vinckei in mice (Mus musculus) measured as increase in mean survival time at 30 mg/kg dose.
Mus musculus [30] = experiment: Oral antimalarial activity against Plasmodium vinckei vinckei in mice (Mus musculus) measured as increase in mean survival time at 100 mg/kg dose.
Mus musculus [31] = experiment: Oral antimalarial activity against Plasmodium vinckei vinckei in mice (Mus musculus) measured as % cured and increase in MST (days) at 150 mg/kg dose.
Mus musculus [32] = experiment: Parenteral antimalarial activity against Plasmodium vinckei vinckei in mice (Mus musculus) measured as % cured and increase in MST (days) at 20 mg/kg dose.
Mus musculus [33] = experiment: Parenteral antimalarial activity against Plasmodium vinckei vinckei in mice (Mus musculus) measured as increase in mean survival time at 25 mg/kg dose.
Mus musculus [34] = experiment: Oral antimalarial activity against Plasmodium vinckei vinckei in mice (Mus musculus) measured as increase in mean survival time at 75 mg/kg dose.
Mus musculus [35] = experiment: Oral antimalarial activity against Plasmodium vinckei in mice (Mus musculus) measured as increase in mean survival time at 150 mg/kg dose.
Mus musculus [36] = experiment: Parenteral antimalarial activity against Plasmodium vinckei vinckei in mice (Mus musculus) measured as % cured and increase in MST (days) at 30 mg/kg dose.
Mus musculus [37] = experiment: Parenteral antimalarial activity against Plasmodium vinckei vinckei in mice (Mus musculus) measured as increase in mean survival time at 20 mg/kg dose.
Mus musculus [38] = experiment: Oral antimalarial activity against Plasmodium vinckei vinckei in mice (Mus musculus) measured as increase in mean survival time at 50 mg/kg dose.
Mus musculus [39] = experiment: Parenteral antimalarial activity against Plasmodium vinckei vinckei in mice (Mus musculus) measured as % cured and increase in MST (days) at 10 mg/kg dose.
Mus musculus [40] = experiment: Parenteral antimalarial activity against Plasmodium vinckei in mice (Mus musculus) measured as % cured and increase in MST (days) at 25 mg/kg dose.
Mus musculus [41] = experiment: Parenteral antimalarial activity against Plasmodium vinckei in mice (Mus musculus) measured as % cured and increase in MST (days) at 30 mg/kg dose.

Row | SMILES | MST (Mus musculus [1]) [days] | Cured (Mus musculus [5]) [%] | Cured (Mus musculus [6]) [%] | Cured (Mus musculus [7]) [%] | Cured (Mus musculus [9]) [%] | Cured (Mus musculus [10]) [%] | Cured (Mus musculus [13]) [%] | Cured (Mus musculus [21]) [%] | Cured (Mus musculus [23]) [%] | Cured (Mus musculus [24]) [%] | Cured (Mus musculus [25]) [%] | Cured (Mus musculus [26]) [%] | MST (Mus musculus [27]) [days] | Cured (Mus musculus [28]) [%] | MST (Mus musculus [30]) [days] | Cured (Mus musculus [31]) [%] | Cured (Mus musculus [32]) [%] | MST (Mus musculus [34]) [days] | Cured (Mus musculus [36]) [%] | MST (Mus musculus [38]) [days] | also measured
1 | Cn1c(=O)nc2n(-c3ccc(Br)cc3)c3ccccc3nc-2c1=O | 2 | 100 | 100 | 100 | 100 | 100 | 60 |  |  |  |  |  |  |  |  |  |  |  |  |  | MST (Mus musculus [2]): 14 days; Cured (Mus musculus [3]): 40%; MST (Mus musculus [4]): 3.5 days; MST (Mus musculus [8]): 13 days; Cured (Mus musculus [11]): 100%; Cured (Mus musculus [12]): 60%; Cured (Mus musculus [14]): 80%
2 | Cn1c(=O)nc2n(-c3ccc(Cl)cc3)c3ccccc3nc-2c1=O | 1.5 | 90 | 90 | 75 | 85 | 95 | 45 |  |  |  |  |  |  |  |  |  |  |  |  |  | MST (Mus musculus [15]): 1.4 days; MST (Mus musculus [16]): 1 days; MST (Mus musculus [17]): 2.7 days; MST (Mus musculus [18]): 1 days; MST (Mus musculus [4]): 2.4 days; MST (Mus musculus [19]): 2.7 days; Cured (Mus musculus [11]; 20 mg/kg): 100% and 90%; Cured (Mus musculus [14]): 60%
3 | Cn1c(=O)nc2n(-c3cccc(Br)c3)c3ccccc3nc-2c1=O |  | 60 | 60 | 20 | 40 | 0 | 0 |  |  |  |  |  |  |  |  |  |  |  |  |  | MST (Mus musculus [16]): 1.5 days; MST (Mus musculus [17]): 1 days; MST (Mus musculus [2]): 3 days; Cured (Mus musculus [3]): 60%; MST (Mus musculus [18]): 1.3 days; MST (Mus musculus [4]; 25 mg/kg): 1 days and 2 days; MST (Mus musculus [20]): 1.4 days; MST (Mus musculus [19]): 1.5 days; MST (Mus musculus [8]): 1 days; Cured (Mus musculus [11]): 20%; Cured (Mus musculus [12]): 60%
4 | Cc1cc(Cl)ccc1-n1c2nc(=O)n(C)c(=O)c-2nc2ccccc21 |  |  |  |  |  |  |  | 40 | 60 | 0 | 0 | 80 | 0.5 | 0 | 2 | 40 | 0 | 3.2 | 0 | 1.5 | MST (Mus musculus [22]): 1.2 days; MST (Mus musculus [29]): -2 days; MST (Mus musculus [33]): -1.4 days; MST (Mus musculus [35]): 1.5 days; MST (Mus musculus [37]): 1.2 days
5 | Cn1c(=O)nc2n(-c3ccc(Cl)c(Cl)c3)c3ccccc3nc-2c1=O |  |  |  |  |  |  |  | 0 | 0 | 60 | 80 | 0 | 0 | 0 | 0.5 | 40 | 100 | 0.5 | 60 | 0 | MST (Mus musculus [24]): 0.5 days; Cured (Mus musculus [39]): 0%; MST (Mus musculus [39]): 0.5 days; MST (Mus musculus [40]): 0 days; MST (Mus musculus [41]): 1 days
6 | O=c1nc2n(-c3ccc(Cl)cc3)c3ccccc3nc-2c(=O)[nH]1 |  |  |  |  |  |  |  | 0 | 0 | 0 | 0 | 0 | 0 | 0 | 0 | 0 | 0 | 0 | 0 | 0 | MST (Mus musculus [24]): 0 days; Cured (Mus musculus [39]): 0%; MST (Mus musculus [39]): 0 days; MST (Mus musculus [40]): 0 days; MST (Mus musculus [41]): 0 days; MST (Mus musculus [32]): 0 days; MST (Mus musculus [35]): 0 days

— ChEMBL document CHEMBL1124085, “Flavins as potential antimalarials. 1. 10-(Halophenyl)-3-methylflavins” (1988)
